Measured values taken from PubChem BioAssay AID844 (SRMLSC, 2007).
Calls of active or inactive are those of the source. No rule for the calls is given here.

Experiments:
[1] = doxorubicin EC50 increase in MRP-1 cells, dose response, cell-based, doxorubicin EC50 shift (AID 844); conditions: MRP1 cells, doxorubicin viability shift, 10 uM compound; at 100 µM (top of the series);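 as to viability: tested at 10 µM; plate controls were cells with vehicle for no effect and cells with cytotoxic drug for full effect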
[2] = test system: MRP1 cells, doxorubicin viability shift, 10 uM compound; assay: as above; conditions: for EC50: measured here: doxorubicin EC50 with compound

SMILES | viability [1] | EC50 [2] [µM] | fold increase in Dox EC50 [2]
Cc1cc(N/N=C/c2ccc(O)cc2O)nc(-n2nc(C)cc2C)n1 | 15.5% (inactive) | < 0.195 | 
NS(=O)(=O)c1ccc(N=Nc2c(-c3ccccc3)[nH]n(-c3nc(-c4ccccc4)cs3)c2=O)cc1 | 8.13% (inactive) | < 0.195 | 
COc1cccc(/C=N/NC(=O)c2cc(-c3cccn3C)n[nH]2)c1O | 9.49% (inactive) | < 0.195 | 
CCOC(=O)c1c(CSC(=N)N)n(-c2ccc(C)cc2)c2cc(Br)c(OC(C)=O)cc12 | 0.37% (inactive) | < 0.195 | 
NC1C2CN(c3nc4c(cc3F)c(=O)c(C(=O)O)cn4-c3ccc(F)cc3F)CC12 (stereo not given) | 17.6% (inactive) | < 0.195 | 
COc1cc(C2Nc3cccc4cccc(c34)N2)cc(OC)c1O | 1.31% (inactive) | < 0.195 | 
N=C(N)SCc1ccc(Cl)cc1Cl | 10.9% (inactive) | < 0.195 | 
Oc1ccc(-c2nc(-c3ccc(O)c(O)c3)cs2)cc1 | 1.94% (inactive) | < 0.195 | 
Cc1ccc(C(c2nnnn2CS(=O)(=O)c2ccc(C)cc2)N2CCN(c3ncccn3)CC2)cc1 (stereo not given) |  | 2.58 | 0.48 (inactive)
CC(=O)N1CCN=C1SCc1ccc(Cl)cc1 |  | 5.75 | 1.06 (inactive)
CCc1c(C)sc(NC(=O)c2cccs2)c1C(=O)OC(C)C |  | 2.26 | 0.42 (inactive)
COC1(OC)C(=N/O)/C(=N\O)CCC1O (stereo not given) |  | 4.16 | 0.77 (inactive)
O=C(Nc1cccn(Cc2c(Cl)cccc2Cl)c1=O)c1c(Cl)cccc1Cl |  | 5.79 | 1.07 (inactive)
O=C(CSCc1ccc(Cl)cc1)NCC1CCCO1 (stereo not given) |  | 5.96 | 1.1 (inactive)
N#CC1=C(N)SC(N)=C(C#N)C1c1cccc(O)c1 |  | 5.78 | 1.07 (inactive)
Nn1c(SCC(=O)Nc2ccccc2F)nc2ccccc2c1=O |  | 7.59 | 1.41 (inactive)
Cn1c(=O)c2c(nc(OCc3ccccc3)n2C)n(C)c1=O |  | 3.78 | 0.7 (inactive)
Cc1ccc2c(C)nc(/N=C(\N)NC(=O)N3c4ccccc4Sc4ccccc43)nc2c1 |  | 7.48 | 1.38 (inactive)

SMILES | viability [1] | EC50 [2] [µM] | fold increase in Dox EC50 [2]
O=c1oc(-c2cc3ccccc3o2)nc2sc3c(c12)CCCC3 |  | 6.32 | 1.17 (inactive)
CCSc1nnc(-c2ccc(C)cc2)c2ccccc12 |  | 3.3 | 0.61 (inactive)
CC(C)(CNC(=O)/C=C/c1ccc(F)cc1)CNC(=O)/C=C/c1ccc(F)cc1 |  | 2.07 | 0.38 (inactive)
COc1ccc(/C=N\NC(=O)c2cc(O)c(O)c(O)c2)cc1CN1CCN(c2ccc(F)cc2)CC1 |  | 3.74 | 0.69 (inactive)
C/C(=N/NC(=S)Nc1ccccc1)c1ccc2c(c1)OCO2 |  | 5.46 | 1.01 (inactive)
COc1ccc(Cl)cc1C(=O)Nc1ccc2c(c1)OCO2 |  | 3.57 | 0.66 (inactive)
COc1ccc(/C=C/C(=O)Nc2c(C)nn(C)c2C)cc1COc1ccc(Br)cc1 |  | 4.51 | 0.84 (inactive)
Cc1nnc(NC(=O)C(C)Oc2ccc3c(C)cc(=O)oc3c2)s1 (stereo not given) |  | 6.99 | 1.29 (inactive)
N#Cc1ccc(N2C(=O)[C@@H]3C(C(=O)c4ccc5ccccc5n4)=NN[C@@H]3C2=O)cc1 |  | 7 | 1.3 (inactive)
CC1CCN(c2ncnc3c2cnn3-c2ccccc2)CC1 |  | 1.65 | 0.31 (inactive)
O=C(CSc1ccccc1)Nc1nnc(COc2ccc(Cl)cc2)s1 |  | 2.34 | 0.43 (inactive)
N#Cc1c(-c2ccccc2)nc(SCC(=O)N(c2ccccc2)c2ccccc2)[nH]c1=O |  | 5.86 | 1.08 (inactive)
Cc1cccc(-n2ncc3c(N4CC(C)CC(C)C4)ncnc32)c1 (stereo not given) |  | 3.25 | 0.6 (inactive)
Cc1cccc(Cc2cnc(NC(=O)CN3C(=O)/C(=C/c4ccccc4)SC3=S)s2)c1 |  | 8.25 | 1.53
S=C(NCc1ccccn1)Nc1ccccc1Cl |  | 6.15 | 1.14 (inactive)
Cc1ccc(/C=C2\SC(=S)N(CCCC(=O)Nc3ccccn3)C2=O)cc1 |  | 4.44 | 0.82 (inactive)
Cc1csc(C(C#N)C(=O)c2cc3ccccc3o2)n1 (stereo not given) |  | 6.41 | 1.19 (inactive)
